Experiment [1] deals with hemagglutinin (HA) of H1N1 A/Korea/01/2009 (Pandemic) (Influenza A virus (A/Korea/01/2009(H1N1)), UniProt C5MQE6).
Experiment [2] has as its target T1, hemagglutinin (HA) of H1N1 A/Puerto Rico/8/1934 (Influenza A virus (A/Puerto Rico/8/1934(H1N1)), UniProt P03452).
T1 construct: native HA on whole virus (virus antigen, 4 HAU); not purified protein
The format is cell-based.

The values that follow come from article PMC5803236 (Scientific Reports, 2018).

On to `CC(=O)N[C@H]1[C@H]([C@H](O)[C@H](O)CO)O[C@@](OC[C@H]2O[C@@H](O[C@H]3[C@H](O)[C@@H](O)C(O)O[C@@H]3CO)[C@H](O)[C@@H](O)[C@H]2O)(C(=O)O)C[C@@H]1O` (some centres unmarked) [6′-sialyllactose], for which the MIC in experiment [1] and in experiment [2] was over 200 mM throughout.
